Experimental data as given in patent US20230167094A1, “H4 ANTAGONIST COMPOUNDS” (Heptares Therapeutics Limited, priority 2020, published 2023).

Experiments:
human H4 receptor = biological target: T1, human H4 receptor (Homo sapiens, UniProt Q9H3N8); assay: H4 Antagonist Functional Dynamic Mass Redistribution Assay; type: cell-based; details: HEKf cells expressing human H4 receptor; antagonist mode vs histamine EC80; pKb by Cheng-Prusoff; read-out: Human H4 DMR fpKb (converted)
T1 construct: expressed in transfected cells; host or cells: HEKf cells infected with baculovirus
Protocol: H4 Antagonist Functional Dynamic Mass Redistribution Assay
HEKf cells were infected using baculovirus expressing the human H4 receptor, plated into fibronectin-coated EPIC plates at a density of 10,000 cells/well and incubated overnight at 37° C. The medium on cells was changed to […] HBSS with 20 mM HEPES per well and 30 nL DMSO were added per well by LabCyte ECHO acoustic dispensing. Following 2 h equilibration at room temperature, 30 nL of H4 ligands prepared in DMSO were stamped by LabCyte ECHO acoustic dispensing into seeded EPIC plates and cellular dynamic mass redistribution was monitored using a Corning EPIC plate reader. Following 45 min measurement, 30 nL/well of histamine EC80 was added and monitored to obtain antagonist assay data. Maximum baseline-corrected responses in pm were used to generate concentration response curves. EC50 values were generated using a 4-parameter logistical fit equation to quantify agonist potencies. Functional antagonist affinity values were generated using the Cheng-Prusoff equation to calculate a pKb value using the antagonist assay data.

hERG = hERG (Homo sapiens, UniProt Q12809); assay: hERG assay (QPatch automated patch clamp, CHO cells); type: cell-based; details: CHO cells stably expressing hERG; 1, 3, 10 and 30 μM; tail current; room temperature; read-out: hERG pIC50 (converted)
Protocol: All experiments were performed on the QPatch automated patch clamp platform.
Series resistance (4-15 MΩ) was compensated by >80%.

T1 sequence (Q9H3N8 whole entry): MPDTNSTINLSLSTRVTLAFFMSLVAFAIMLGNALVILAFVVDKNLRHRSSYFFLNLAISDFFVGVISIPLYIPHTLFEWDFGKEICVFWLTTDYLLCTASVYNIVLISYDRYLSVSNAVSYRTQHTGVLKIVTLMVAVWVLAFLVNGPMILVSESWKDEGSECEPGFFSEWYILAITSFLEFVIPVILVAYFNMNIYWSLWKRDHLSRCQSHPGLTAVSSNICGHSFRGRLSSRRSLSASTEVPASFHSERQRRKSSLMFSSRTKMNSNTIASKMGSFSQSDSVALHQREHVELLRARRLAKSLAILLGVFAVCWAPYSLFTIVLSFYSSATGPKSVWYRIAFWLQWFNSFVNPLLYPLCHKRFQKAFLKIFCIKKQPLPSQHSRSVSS
hERG, sequence (Q12809 whole entry): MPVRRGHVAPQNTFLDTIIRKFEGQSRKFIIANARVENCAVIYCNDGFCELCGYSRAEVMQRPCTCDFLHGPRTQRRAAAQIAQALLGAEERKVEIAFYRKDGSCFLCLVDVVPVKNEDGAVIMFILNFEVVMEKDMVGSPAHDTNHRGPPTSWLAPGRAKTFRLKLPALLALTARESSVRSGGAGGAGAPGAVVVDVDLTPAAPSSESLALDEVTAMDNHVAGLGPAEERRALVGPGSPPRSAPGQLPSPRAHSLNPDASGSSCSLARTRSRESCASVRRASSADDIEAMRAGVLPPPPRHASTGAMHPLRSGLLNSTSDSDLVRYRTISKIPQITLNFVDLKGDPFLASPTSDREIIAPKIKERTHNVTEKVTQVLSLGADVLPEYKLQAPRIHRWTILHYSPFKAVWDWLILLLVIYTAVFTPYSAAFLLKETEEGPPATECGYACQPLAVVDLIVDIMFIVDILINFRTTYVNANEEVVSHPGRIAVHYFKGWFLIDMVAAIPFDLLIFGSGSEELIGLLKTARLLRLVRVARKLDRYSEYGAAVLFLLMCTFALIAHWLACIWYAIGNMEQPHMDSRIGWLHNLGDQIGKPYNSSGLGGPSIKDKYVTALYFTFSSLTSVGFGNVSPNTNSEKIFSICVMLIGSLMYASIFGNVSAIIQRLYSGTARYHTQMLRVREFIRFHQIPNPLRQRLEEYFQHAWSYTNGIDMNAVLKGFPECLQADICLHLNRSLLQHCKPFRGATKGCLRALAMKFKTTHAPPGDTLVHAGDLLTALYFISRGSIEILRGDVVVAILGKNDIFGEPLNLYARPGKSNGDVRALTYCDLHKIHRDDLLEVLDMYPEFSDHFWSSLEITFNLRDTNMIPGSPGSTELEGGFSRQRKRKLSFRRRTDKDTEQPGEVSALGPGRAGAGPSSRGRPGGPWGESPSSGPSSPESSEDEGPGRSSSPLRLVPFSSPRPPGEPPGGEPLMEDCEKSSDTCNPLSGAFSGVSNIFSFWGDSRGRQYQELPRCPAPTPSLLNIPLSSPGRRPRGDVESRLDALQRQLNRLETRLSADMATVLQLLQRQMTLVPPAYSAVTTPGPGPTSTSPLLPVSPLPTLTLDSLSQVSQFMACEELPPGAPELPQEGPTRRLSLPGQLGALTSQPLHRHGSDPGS

CNC1CN(c2cc(-c3cc(C)nn3C)nc(N)n2)C1 [Example 24, 4-(1,3-Dimethyl-1H-pyrazol-5-yl)-6-(3-(methylamino)azetidin-1-yl)pyrimidin-2-amine]
Kb (human H4 receptor): 126 nM | IC50 (hERG): > 100 µM

CNC1CN(c2cc(-c3cnn(C)c3Cl)nc(N)n2)C1 [Example 15, 4-(5-Chloro-1-methyl-1H-pyrazol-4-yl)-6-(3-(methylamino)azetidin-1-yl)pyrimidin-2-amine]
Kb (human H4 receptor): 7.94 nM | IC50 (hERG): > 100 µM

CN[C@@H]1CCN(c2cc(-c3cnn(C)c3Cl)nc(N)n2)C1 [Example 5, (R)-4-(5-Chloro-1-methyl-1H-pyrazol-4-yl)-6-(3-(methylamino)pyrrolidin-1-yl)pyrimidin-2-amine]
Kb (human H4 receptor): 3.98 nM | IC50 (hERG): > 100 µM
